Measured values taken from PubChem BioAssay AID1250 (SRMLSC, 2008).

Tested on: BSR cells, Bluetongue virus CPE, ATP luminescence, 72 h
Assay: inhibitors of Bluetongue virus cytopathic effect, confirmation, arbovirus, BSR cells (AID 1250)

Row | Structure (SMILES) | IC50 [µM]
1 | CCOc1cc(/C=C(/C#N)c2ccc(Cl)cc2)cc(Cl)c1OCC(=O)O | 20.6
2 | O=c1[nH]n2c(=O)c3c([nH]c2c1N=Nc1cccc(Cl)c1)CCCC3 | 18.5
3 | CCc1cc(C(=O)O)c(NC(=O)/C=C/c2ccc(OC)c(OC)c2)s1 | 1.68
4 | O=c1oc(-c2cc3ccccc3o2)nc2sc3c(c12)CCCC3 | 4.59
5 | COc1ccc(Cn2c(C)c(C)c(C#N)c2NC(=O)Nc2cccc(C)c2)cc1 | 7.63
6 | Cc1ccc(-c2csc(NC(=O)c3cccs3)n2)cc1 | 5
7 | CC(C)(C)c1ccc(C(=O)Nc2sc3c(c2C(=O)O)CCC3)cc1 | 0.165
8 | O=C(O)c1cccc(N/N=C/C2=C(Cl)c3cc(Cl)ccc3SC2)c1 | 13.2
9 | CC(NC(=O)c1cccs1)c1nnc(SCc2ccc(Cl)cc2Cl)n1C (centres undefined) | 9.37
10 | O=c1[nH]n2c(=O)c3c([nH]c2c1N=Nc1cccc(C(F)(F)F)c1)CCCC3 | 19.5
11 | C(=N\Nc1nc(-c2ccccc2)cs1)/c1cccs1 | 15.5
12 | CC(C)Sc1nsc2nc(=O)c(/C=C3\C=Nc4ccccc43)c(N)n12 | 10.3
13 | CCCCCCc1cc2cc(C(=O)Nc3ccccc3OC)c(=O)oc2cc1O | 9.14
14 | COc1cc([N+](=O)[O-])ccc1NC(=O)CC1SC(=Nc2ccc(F)cc2)N(CCC2=CCCCC2)C1=O (centres undefined) | 0.108
15 | CCOC(=O)c1ccc(N2C(=O)C3C(/C=C/c4ccccc4)OC4(C(=O)c5ccccc5C4=O)C3C2=O)cc1 (centres undefined) | 19.6
16 | Cc1csc(NC(=O)c2c(O)c3c(n(CC(C)C)c2=O)CCCC3)n1 | 4.9
17 | N#Cc1sc2nc(-c3cccs3)cc(-c3ccc(F)cc3)c2c1N | 2.28
18 | Nc1nc(-c2ccccc2)c(-c2ccc([N+](=O)[O-])cc2)s1 | 5.6
19 | COc1cc(C(=O)Nc2nc(-c3ccc(C)cc3)cs2)ccc1OCC(=O)N1CCOCC1 | 4
20 | Cc1nc(CS(=O)c2ccc(Cl)cc2)cc(NCc2ccc(Cl)cc2Cl)n1 (centres undefined) | 9.42
21 | COC(=O)c1ccccc1NC(=O)CN1CCC(NC(=O)c2ccccc2C)CC1 | 1.45
22 | Cc1ccc(-c2csc(NC(=O)/C=C/c3ccco3)c2C(=O)O)cc1 | 8.57
23 | O=c1oc(/C=C/c2ccccc2)nc2sc3c(c12)CCC3 | 8.92
24 | COc1cccc(C(=O)Nc2nc(-c3ccc4c(c3)OCO4)cs2)c1 | 9.98

Results, then the compound that gave them:

Row | IC50 [µM] | Structure (SMILES)
25 | 5.33 | O=C(O)c1ccc(N2C(=O)/C(=C/c3ccc(-c4ccc([N+](=O)[O-])cc4)o3)C=C2c2ccccc2)cc1
26 | 16.6 | CCOc1ccc(N=Nc2c(=O)[nH]n3c(=O)c4c([nH]c23)CCCC4)cc1
27 | 9.79 | CC(=O)OC[C@H]1O[C@@H](n2ncc(=O)[nH]c2=O)[C@H](OC(C)=O)[C@@H]1OC(C)=O
28 | 0.524 | C/C(=N\NC(=O)c1ccccc1C)c1ccc(NC(=O)c2cccs2)cc1
29 | 15.5 | CC(C)(C)c1c(Cl)c(O)c(-c2ccccc2)c(=O)n1-c1ccccc1
30 | 0.416 | Cc1cc(C)c2cc(CN(Cc3cccnc3)C(=O)c3ccc(F)cc3)c(Cl)nc2c1
31 | 20.7 | COc1ccc(-c2csc(NC(=O)C3=NN(c4ccccc4)C(=O)CC3)n2)cc1
32 | 13 | COc1ccc(C2C=C(c3ccc(C)cc3)Nc3ncnn32)cc1 (centres undefined)
33 | 13.3 | COc1ccc(NC(=O)c2cc3cccc(OC)c3oc2=Nc2ccc(C(=O)O)cc2)cc1OC
34 | 18.3 | CCc1nn2c(N)c(/C=C3\C=Nc4ccccc43)c(=O)nc2s1
35 | 19.8 | CCOc1ccc(-c2cc3nc(C4CCN(C(=O)OC(C)(C)C)CC4)c(C(=O)O)cn3n2)cc1
36 | 16.6 | COc1ccc(CN(C(=O)c2cc3ccccc3oc2=O)C2CCCCC2)cc1OC
37 | 10.6 | COc1cc(C(=O)Nc2nc(-c3ccc(F)cc3)cs2)ccc1OCC(=O)N1CCOCC1
38 | 15.6 | CC(=O)Nc1cccc(Oc2ncnc3scc(-c4ccccc4)c23)c1
39 | 15.6 | COc1ccc(N=C2S/C(=C\c3ccc(OCC(=O)O)cc3)C(=O)N2CCc2c[nH]c3ccccc23)cc1
